Reference: patent US20080213356A1, “Pharmaceutical Composition Containing Hmg-Coa Reductase Inhibitor And Method For The Preparation Thereof” (PHARMATHEN S.A., priority 2005, published 2008)
Counter-ions that a name gives are not always drawn.

Assay: Flowability and compressibility, Carr's Index
Type: physicochemical
Details: pure pharmaceutical substance
Excerpt: However, when Dimethicone was incorporated according to the present invention, a decrease of 40-50% of the Carr Index was observed, which indicates an improvement of the flow properties of Fluvastatin and Atorvastatin and therefore the use of a direct compression for the final formulation.

CC(C)c1c(C(=O)Nc2ccccc2)c(-c2ccccc2)c(-c2ccc(F)cc2)n1CC[C@@H](O)C[C@@H](O)CC(=O)O (relative stereo) [Atorvastatin, [R—(R*,R*)]-2-(4-fluorophenyl)-b,d-dihydroxy-5-(1-methylethyl)-3-phenyl-4 [(phenylamino)carbonyl]-1H-pyrrole-1-heptanoic acid, calcium salt (2:1) trihydrate]
mean Carr's Index: 24-25%
